The results in this text go back to PubChem BioAssay (NCI).

Test systems include SN12C renal; SK-OV-3 ovarian; SW-620 colon; HCT-116 colon; ACHN renal; UACC-257 melanoma; SNB-75 CNS; UACC-62 melanoma; DU-145 prostate; OVCAR-4 ovarian; NCI/ADR-RES ovarian; SR leukemia.
Holding throughout (experiment): growth of human tumour cells (NCI), 48 h

Structures are written as SMILES.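 Assay format: 96-well plates, 48-hour exposure. TGI denotes the concentration required for complete inhibition of growth.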 Bounds are passed on as bounds.

Turning to `CC(/C=C/C(=O)NO)=C\C(C)C(=O)c1ccc(N(C)C)cc1` (stereo not drawn), the TGI in the experiment on SN12C renal was determined as 0.206 µM; with SK-OV-3 ovarian, 0.224 µM; in the experiment on SW-620 colon, 29.8 µM; in the experiment with HCT-116 colon it was 11.5 µM; in the experiment on ACHN renal it was 0.0942 µM; in the experiment on UACC-257 melanoma, 0.387 µM. The TGI was determined as 0.234 µM in the experiment on SNB-75 CNS, 0.063 µM with UACC-62 melanoma, 0.0792 µM with DU-145 prostate and 16.8 µM in the experiment on OVCAR-4 ovarian.
For the molecule `C=CC(=O)Nc1ccc(NC(=O)C=C)c2c1C(=O)c1ccccc1C2=O`, the TGI in the experiment on SN12C renal, with NCI/ADR-RES ovarian, with SW-620 colon, in the experiment with HCT-116 colon, in the experiment with ACHN renal and in the experiment with UACC-257 melanoma was > 100 µM each time. The TGI in the experiment with UACC-62 melanoma is 90.8 µM; in the experiment on SR leukemia, > 100 µM.
With `COc1ccccc1Nc1nc2c([nH]1)c(=O)n(C)c(=O)n2C`, the TGI in the experiment with SN12C renal, in the experiment on SK-OV-3 ovarian, with SW-620 colon, in the experiment on UACC-257 melanoma, in the experiment on SNB-75 CNS and in the experiment on UACC-62 melanoma was > 10 µM throughout. Further, the TGI in the experiment with DU-145 prostate, in the experiment with OVCAR-4 ovarian and in the experiment with SR leukemia was > 10 µM each time.
`COc1cccc(/C=N/n2c(Cc3ccccc3)n[nH]c2=O)c1`: the TGI was > 60.3 µM in the experiment with SN12C renal; > 100 µM with NCI/ADR-RES ovarian; > 100 µM with SK-OV-3 ovarian; > 100 µM in the experiment with SW-620 colon; > 100 µM in the experiment with HCT-116 colon; > 100 µM with ACHN renal. The TGI in the experiment with UACC-257 melanoma is > 100 µM; in the experiment with SNB-75 CNS it was 61.2 µM; in the experiment with UACC-62 melanoma it was > 100 µM; in the experiment on DU-145 prostate it was > 100 µM; with OVCAR-4 ovarian, > 100 µM.
On to `CC(C)(O)C(O)COc1c2c(cc3oc(=O)ccc13)OCO2` (stereo not drawn), for which the TGI in the experiment on SN12C renal, with SK-OV-3 ovarian, in the experiment on SW-620 colon, with HCT-116 colon, with ACHN renal and in the experiment with UACC-257 melanoma was > 100 µM throughout. Besides, the TGI in the experiment on SNB-75 CNS, in the experiment with UACC-62 melanoma, in the experiment on OVCAR-4 ovarian and in the experiment on SR leukemia was > 100 µM in each case.
`COc1cc(/C=C2\C(=O)N(C(=O)Cc3ccccc3)N=C2C)cc(OC)c1OC`: the TGI with SN12C renal, with SW-620 colon, in the experiment on HCT-116 colon, with ACHN renal, in the experiment on UACC-257 melanoma and in the experiment with SNB-75 CNS was > 100 µM in each case. Besides, the TGI in the experiment with OVCAR-4 ovarian and in the experiment with SR leukemia was > 100 µM in each case.
On to `O=C1C2C(C(=O)N1c1ccccc1)C1(c3ccccc3)CCC2(C(=O)c2ccccc2)O1` (stereo not drawn), for which the TGI in the experiment with SN12C renal, in the experiment on NCI/ADR-RES ovarian, in the experiment with SK-OV-3 ovarian, in the experiment with SW-620 colon, with HCT-116 colon and in the experiment with ACHN renal was > 10 µM in each case. For the same molecule, the TGI in the experiment on UACC-257 melanoma, in the experiment with UACC-62 melanoma, in the experiment on DU-145 prostate and in the experiment with OVCAR-4 ovarian was > 10 µM throughout.
Consider `O=c1nc2n3c4c(cccc4nc-2c(=O)[nH]1)CCC3`, for which the TGI in the experiment on SN12C renal, with NCI/ADR-RES ovarian, in the experiment on SK-OV-3 ovarian, in the experiment on SW-620 colon, with HCT-116 colon and in the experiment on ACHN renal was > 100 µM in each case. The TGI with UACC-257 melanoma, in the experiment with SNB-75 CNS, with UACC-62 melanoma, in the experiment with DU-145 prostate and in the experiment on OVCAR-4 ovarian was > 100 µM in each case.
Regarding `COc1cc(C2C(Cl)C(=O)N2NC(=O)Cc2ccccc2)cc(Br)c1O` (stereo not drawn), the TGI with SN12C renal, in the experiment with SK-OV-3 ovarian, with SW-620 colon, with HCT-116 colon, with ACHN renal and with UACC-257 melanoma was > 100 µM throughout. Also, the TGI with SNB-75 CNS, in the experiment on UACC-62 melanoma, in the experiment with OVCAR-4 ovarian and in the experiment on SR leukemia was > 100 µM throughout.
`CC(=O)OC[C@H]1CN(OC(C)=O)C[C@@H](n2cc(C)c(=O)[nH]c2=O)O1`: the TGI in the experiment on SN12C renal, with SK-OV-3 ovarian, in the experiment with SW-620 colon, with HCT-116 colon, in the experiment with ACHN renal and in the experiment with UACC-257 melanoma was > 100 µM in each case. Further, the TGI in the experiment with SNB-75 CNS, in the experiment with UACC-62 melanoma, in the experiment on DU-145 prostate and in the experiment with OVCAR-4 ovarian was > 100 µM throughout.
Regarding `NC1N=C(c2ccc(Cl)cc2)C2=C(N1)c1ccccc1CC2` (stereo not drawn), the TGI in the experiment with SN12C renal is > 100 µM; in the experiment on NCI/ADR-RES ovarian, > 100 µM; in the experiment on SK-OV-3 ovarian, > 100 µM; with SW-620 colon it was > 78.4 µM; in the experiment with HCT-116 colon, > 56.9 µM; with ACHN renal, > 100 µM. Also, the TGI in the experiment with UACC-257 melanoma is > 100 µM; with SNB-75 CNS it was > 22.7 µM; in the experiment on UACC-62 melanoma it was > 100 µM; with DU-145 prostate, > 100 µM; in the experiment on OVCAR-4 ovarian, 88.2 µM.
On to `O=c1oc2ccc3ccccc3c2cc1-c1nnc(Nc2ccccc2)s1`, for which the TGI with SN12C renal is > 100 µM; with NCI/ADR-RES ovarian, > 100 µM; in the experiment on HCT-116 colon it was 52.4 µM; in the experiment on ACHN renal, 27.2 µM; in the experiment with UACC-257 melanoma it was > 100 µM; in the experiment with UACC-62 melanoma it was 53.9 µM. Moreover, the TGI was 55.5 µM in the experiment with DU-145 prostate, 38.8 µM in the experiment on OVCAR-4 ovarian and 81.7 µM with SR leukemia.
Take `N#CC(c1ccccc1)N(CCCCCCN(C(=O)c1ccccc1)C(C#N)c1ccccc1)C(=O)c1ccccc1` (stereo not drawn): the TGI was > 100 µM in the experiment with SN12C renal; 51.2 µM with NCI/ADR-RES ovarian; > 100 µM in the experiment on SK-OV-3 ovarian; > 100 µM with SW-620 colon; 83.4 µM in the experiment on HCT-116 colon; > 100 µM in the experiment with ACHN renal. Moreover, the TGI is 63.9 µM in the experiment with UACC-257 melanoma; > 100 µM in the experiment with SNB-75 CNS; 77.7 µM in the experiment on UACC-62 melanoma; > 100 µM with DU-145 prostate; 91.2 µM in the experiment with OVCAR-4 ovarian.
